Measured values reported in PubChem BioAssay (NCI).
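Values below derive from 48-hour exposures of cells grown in 96-well plates, with endpoints linearly interpolated between the two concentrations bracketing the appropriate inhibition level. TGI denotes the concentration required for complete inhibition of growth.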

Assays:
Assay in all cases: inhibition of tumour cell growth, NCI panel, 48 h
[1] = system: 786-0 renal
[2] = system: A498 renal
[3] = system: A549 NSCLC
[4] = system: ACHN renal
[5] = system: BT-549 breast
[6] = system: CAKI-1 renal
[7] = system: CCRF-CEM leukemia
[8] = system: COLO 205 colon
[9] = system: DU-145 prostate
[10] = system: EKVX NSCLC
[11] = system: HCC-2998 colon
[12] = system: HCT-116 colon
[13] = system: HCT-15 colon
[14] = system: HL-60(TB) leukemia
[15] = system: HOP-62 NSCLC
[16] = system: HOP-92 NSCLC
[17] = system: HS 578T breast
[18] = system: HT29 colon
[19] = system: IGROV1 ovarian
[20] = system: K-562 leukemia
[21] = system: KM12 colon
[22] = system: LOX IMVI melanoma
[23] = system: M14 melanoma
[24] = system: MALME-3M melanoma
[25] = system: MCF7 breast
[26] = system: MDA-MB-231 breast
[27] = system: MDA-MB-435
[28] = system: MDA-N
[29] = system: MOLT-4 leukemia
[30] = system: NCI-H226 lung
[31] = system: NCI-H23 lung
[32] = system: NCI-H460 lung
[33] = system: NCI-H522 lung
[34] = system: NCI/ADR-RES ovarian
[35] = system: OVCAR-3 ovarian
[36] = system: OVCAR-5 ovarian
[37] = system: OVCAR-8 ovarian
[38] = system: PC-3 prostate
[39] = system: RPMI-8226 leukemia
[40] = system: RXF 393 renal
[41] = system: SF-268 CNS
[42] = system: SF-295 CNS
[43] = system: SF-539 CNS
[44] = system: SK-MEL-2 melanoma
[45] = system: SK-MEL-28 melanoma
[46] = system: SK-MEL-5 melanoma
[47] = system: SK-OV-3 ovarian
[48] = system: SN12C renal
[49] = system: SNB-19 CNS
[50] = system: SNB-75 CNS
[51] = system: SR leukemia
[52] = system: SW-620 colon
[53] = system: T-47D breast
[54] = system: TK-10 renal
[55] = system: U251 CNS
[56] = system: UACC-257 melanoma
[57] = system: UACC-62 melanoma
[58] = system: UO-31 renal
[59] = system: OVCAR-4 ovarian

In the case of `CCOC(NC(=O)CC)(C(F)(F)F)C(F)(F)F`, the TGI [1] is reported as over 100 µM, the TGI [2] is reported as over 100 µM and the TGI [3] is reported as over 100 µM. The TGI [4] was over 100 µM, the TGI [5] was over 100 µM and the TGI [6] was over 100 µM. The TGI [7] was over 100 µM, the TGI [8] was over 100 µM and the TGI [9] was over 100 µM. The TGI [10] was over 100 µM, the TGI [11] was over 100 µM and the TGI [12] was over 100 µM. The TGI [13] was over 100 µM, the TGI [14] was over 100 µM and the TGI [15] was over 100 µM. The TGI [16] was over 100 µM, the TGI [17] was over 100 µM and the TGI [18] was over 100 µM. The TGI [19] was over 100 µM, the TGI [20] was over 100 µM and the TGI [21] was over 100 µM. For the same molecule, the TGI [22] was over 100 µM, the TGI [23] was over 100 µM and the TGI [24] was over 100 µM. It also gave a TGI [25] of over 100 µM, a TGI [26] of over 100 µM and a TGI [27] of over 100 µM. The TGI [28] was over 100 µM, the TGI [29] was over 100 µM and the TGI [30] was over 100 µM. The TGI [31] was over 100 µM, the TGI [32] was over 100 µM and the TGI [33] was over 100 µM. For the same molecule, the TGI [34] was over 100 µM, the TGI [35] was over 100 µM and the TGI [36] was over 100 µM. For the same molecule, the TGI [37] was over 100 µM, the TGI [38] was over 100 µM and the TGI [39] was over 100 µM. For the same molecule, the TGI [40] was 61.2 µM, the TGI [41] was over 100 µM and the TGI [42] was over 100 µM. It also gave a TGI [43] of over 100 µM, a TGI [44] of over 100 µM and a TGI [45] of over 100 µM. The TGI [46] was over 100 µM, the TGI [47] was over 100 µM and the TGI [48] was over 100 µM. It also gave a TGI [49] of over 100 µM, a TGI [50] of over 100 µM and a TGI [51] of over 100 µM. It also gave a TGI [52] of over 100 µM, a TGI [53] of over 100 µM and a TGI [54] of over 100 µM. The TGI [55] was over 100 µM, the TGI [56] was over 100 µM and the TGI [57] was over 100 µM. It also gave a TGI [58] of over 100 µM.
`O=C(NCc1ccccc1)c1cc2ccccc2oc1=Nc1ccccc1F` gave a TGI [1] of 24.1 µM, a TGI [2] of over 100 µM and a TGI [3] of 88.7 µM. For the same molecule, the TGI [4] was 58.3 µM, the TGI [5] was over 100 µM and the TGI [6] was 27.9 µM. The TGI [7] was over 100 µM, the TGI [8] was 74.4 µM and the TGI [9] was over 100 µM. For the same molecule, the TGI [10] was over 100 µM, the TGI [11] was 61.5 µM and the TGI [12] was over 100 µM. For the same molecule, the TGI [13] was over 100 µM, the TGI [14] was over 100 µM and the TGI [15] was 39.8 µM. For the same molecule, the TGI [16] was over 100 µM, the TGI [17] was over 100 µM and the TGI [18] was over 100 µM. The TGI [19] was over 100 µM, the TGI [20] was over 100 µM and the TGI [21] was over 100 µM. The TGI [22] was 37.3 µM, the TGI [23] was over 100 µM and the TGI [24] was over 100 µM. The TGI [25] was over 100 µM, the TGI [26] was 47.3 µM and the TGI [27] was over 100 µM. For the same molecule, the TGI [28] was over 100 µM, the TGI [29] was over 100 µM and the TGI [30] was 92.2 µM. The TGI [31] was 57.5 µM, the TGI [32] was over 100 µM and the TGI [33] was over 100 µM. The TGI [34] was over 100 µM, the TGI [35] was over 100 µM and the TGI [59] was 76.7 µM. The TGI [36] was over 100 µM, the TGI [37] was 31.2 µM and the TGI [38] was over 100 µM. For the same molecule, the TGI [39] was over 100 µM, the TGI [40] was 84.5 µM and the TGI [41] was over 100 µM. For the same molecule, the TGI [42] was over 100 µM, the TGI [44] was over 100 µM and the TGI [45] was over 100 µM. For the same molecule, the TGI [46] was 51.9 µM, the TGI [47] was 47.5 µM and the TGI [48] was 96.3 µM. The TGI [49] was over 100 µM, the TGI [50] was 45.5 µM and the TGI [51] was over 100 µM. The TGI [52] was over 100 µM, the TGI [53] was over 100 µM and the TGI [54] was 36.7 µM. It also gave a TGI [55] of over 100 µM, a TGI [56] of over 100 µM and a TGI [57] of over 100 µM. It also gave a TGI [58] of 36.1 µM.
